Assay [1] has as its system PBMC from COVID-19, vaccinated, seronegative and pre-pandemic donors. Description: IFN-γ ELISpot, ex vivo PBMC. The conditions noted are these: of 10 convalescent COVID-19 donors analyzed. Format: cell-based, human.
Assay [2] relates to in vitro expanded T cell lines. Description: IFN-γ ELISpot, T cells expanded in vitro with peptides or peptide pools. It is filed as cell-based, human. The settings on record: HCoV S pool-expanded lines from 3 convalescent COVID-19 donors; pool deconvolution; 1 μg/mL per peptide; positive by DFR2X.
Assay [3] addresses DQ5 (HLA-DQA1*01:01/DQB1*05:01) (Homo sapiens, UniProt P01909+P01920, A157S/A45G/A70V/C70R/D89V/E106S/E118A/E183D/E77G/F83G/G63E/H151Q/H199R/H252R/H253Q/I129T/I235V/I88M/INS77G/K197Q/L107V/L117V/L119Y/L178F/L71W/L74F/L85Q/L91A/L98M/M46L/N214S/P87R/Q116E/Q256R/Q57E/Q76K/R102G/R240Q/R75S/R78G/S102Y/S185I/S41F/S97I/T103A/T109R/T121G/T122I/T172A/T86R/V148I/V68A/V73E/Y34C/Y58G/Y62H). Description: Fluorescence polarization competition peptide binding assay, DQ5. The conditions noted are these: Figure 5E, described in words.

In assay [4] the test system is T cell clones with partially HLA-matched APCs (LG2, 9068, MN605). Description: T cell clone stimulation, IFN-γ ELISA. Format: cell-based, human. The conditions noted are these: for dose-dependent reactivity relative to the SARS-CoV-2 peptide: 10-fold dilution series 1-10^−4 μg/mL, 24 hours.

With “S986–1,006: SARS-CoV-2 spike candidate epitope, overlapping peptides 198/199”, the “donors showing ex vivo responses” value in assay [1] was 1 donors. Further, the “donors recognizing the pair of overlapping peptides” value in assay [2] is reported as “single”.
RVAGRSAIEDILFSKLV [229E-115]: the “binding of homolog peptides to DQ5 relative to S811–831” value in assay [3] is “substantially weaker binding”.
For the substance SALEDLLFSKVVTSGLG [NL63-146], the “dose-dependent reactivity relative to the SARS-CoV-2 peptide” value in assay [4] ([…]) is “approximately 10 fold weaker”. For the same substance, the “binding of homolog peptides to DQ5 relative to S811–831” value in assay [3] was “substantially weaker binding”.
Turning to SSSRSFFEDLLFDKVKL [HKU1-151], the “dose-dependent reactivity compared with S811–826” value in assay [4] (clone #49, cyan group (DQ5, CoV2/HKU1)) is “similar”. In assay [4] (clone #120, gold group (DP4, CoV2/HKU1)), the “dose-dependent reactivity relative to the SARS-CoV-2 peptide” value is recorded as “approximately 10 fold weaker”. Further, the “binding of homolog peptides to DQ5 relative to S811–831” value in assay [3] is listed as “binds more strongly than SARS-CoV-2”.
